≈ marks a conversion by molar mass, not a printed value. Read-outs that look alike come from different tables or passages of the source.
Columns and labels:
[1] = chemical stability: retention (%) after heating at 60° C. for 4 hours, by HPLC; type: physicochemical
Method: The chemical stability of the present compound was evaluated by determining the retention (%) after heating at 60° C. for 4 hours. In Table 5 are shown the test results together with those for spergualin as reference. The retention was determined by means of high performance liquid chromatography (HPLC). The column was packed with Nucleosil® 5C18. The solvent used for spergualin was a mixture (6:94) of acetonitrile -0.01M sodium pentanesulfonate +0.01M Na2 HPO4 (pH 3), while that for the compounds of this invention was a mixture of acetonitrile -0.005M sodium pentanesulfonate ±0.01M Na2 HPO4 (pH 3). The mixture ratio in the latter case was varied for each particular compound. For instance, a mixing ratio of 10:90 was used for Compound No. 9, while that of 7:93 for Compound No. 22.

[2] = system: mouse leukemia L-1210 cells; experiment: growth inhibitory activity to cancer cells in vitro (L-1210, 48 hours); type: cell-based; conditions: for inhibition at 5 µg/mL: L1210, 5 mcg/ml; for inhibition at 10 µg/mL: L1210, 10 mcg/ml; for inhibition at 20 µg/mL: L1210, 20 mcg/ml; for inhibition at 40 µg/mL: L1210, 40 mcg/ml; for IC50: L1210, L-1210 cells, read-out: 50% inhibitory concentration
In short: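 L-1210 cells from DBA/2 mouse ascites, cultured at 5×10^4 cells per well in RPMI 1640 with 10% FCS and 5 μM 2-mercaptoethanol, 37° C, CO2, for 48 h with compound. Cell counts by Coulter Counter gave % inhibition (1−T/C)×100, and IC50 was derived across concentrations.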

[3] = system: mouse leukemia L-1210; experiment: therapeutic effect on implanted cancer in mice (L-1210, survival over 30 days); type: in vivo, mouse (BDF1); conditions: L1210, ip, 720 h, 6 days; for responders at 6.25 mg/kg / response vs control in vivo at 6.25 mg/kg: 6.25 mg/kg/day i.p.; for responders at 12.5 mg/kg / response vs control in vivo at 12.5 mg/kg: 12.5 mg/kg/day i.p.; for responders at 25 mg/kg / response vs control in vivo at 25 mg/kg: 25 mg/kg/day i.p.; for responders at 50 mg/kg / response vs control in vivo at 50 mg/kg: 50 mg/kg/day i.p.
In short: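 Male BDF1 mice aged 5 weeks received an intraperitoneal inoculation of 10^5 L-1210 mouse leukemia cells. Starting on the inoculation day, test compounds dissolved in physiological saline were injected intraperitoneally once daily for 6 consecutive days, and animals were then followed for 30 days to record survival.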

[4] = acute toxicity in mice (single intraperitoneal administration); conditions: mouse, in vivo, ip, read-out: LD50 (median lethal dose on single administration)
Method: In Table 8 median lethal doses (LD50) of typical compounds of this invention are shown, measured in mice upon single intraperitoneal administration, as well as maximum tolerated doses in terms of total dose when a fixed amount per unit body weight was administered intraperitoneally to mice once a day for 6 consecutive days.
*Median lethal dose on single administration.

[5] = cumulative toxicity in mice (maximum tolerated dose, once a day for 6 consecutive days); conditions: mouse, in vivo, ip, i.p. once a day for 6 consecutive days, total dose, read-out: Maximum Tolerated Dose (total dose not causing death)
In short: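 Mice dosed intraperitoneally once a day for 6 consecutive days with a fixed amount per unit body weight. The value is the maximum total dose not causing death.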

[6] = read-out: Growth inhibition (%), (1-T/C) × 100
[7] = read-out: Number of mice survived for 30 days (converted)
[8] = read-out: Prolongation of survival period (%), T/C × 100

Compound	remaining at 4 h ([1]; pH 2, pH 2) [%]	remaining at 4 h ([1]; pH 4, pH 4) [%]	remaining at 4 h ([1]; pH 5, pH 5) [%]	remaining at 4 h ([1]; pH 6, pH 6) [%]	remaining at 4 h ([1]; pH 7, pH 7) [%]	remaining at 4 h ([1]; pH 8, pH 8) [%]	remaining at 4 h ([1]; pH 9, pH 9) [%]	remaining at 4 h ([1]; pH 10, pH 10) [%]	inhibition at 5 µg/mL [2, 6] [%]	inhibition at 10 µg/mL [2, 6] [%]	inhibition at 20 µg/mL [2, 6] [%]	inhibition at 40 µg/mL [2, 6] [%]	IC50 [2] [µg/mL]	responders at 6.25 mg/kg [3, 7] [%]	response vs control in vivo at 6.25 mg/kg [3, 8] [%]	responders at 12.5 mg/kg [3, 7] [%]	response vs control in vivo at 12.5 mg/kg [3, 8] [%]	responders at 25 mg/kg [3, 7] [%]	response vs control in vivo at 25 mg/kg [3, 8] [%]	responders at 50 mg/kg [3, 7] [%]	also measured
N=C(N)NCCCC[C@H](O)CC(=O)NC(OCCO)C(=O)NCCCCNCCCN (stereo partly drawn) [Compound 25, N-[4-(3-aminopropyl)aminobutyl]-2-(7-guanidino-3-hydroxyheptanamido)-2-(2-hydroxy)ethoxyethanamide]	68.9	100	100	100	100	100	97.7	95.5	20	42	63.5	74.7	7.2 (≈ 16.1 µM)	0	107	0	193	0	229	100	inhibition at 2.5 µg/mL ([2]; L1210, 2.5 mcg/ml, read-out: Growth inhibition (%), (1-T/C) × 100): 9%; response vs control in vivo at 50 mg/kg [3, 8]: > 429%; LD50 [4]: > 50 mg/kg; MTD [5]: > 300 mg/kg
COC(NC(=O)CCCCCCNC(=N)N)C(=O)NCCCCNCCCN (racemic) [Compound 9, N-[4-(3-aminopropyl)aminobutyl]-2-(7-guanidinoheptanamido)-2-methoxyethanamide]	69.3	100	100	100	100	100	97.5	97.9	35.5	45.9	62.3	78.1	12 (≈ 29.9 µM)	100	> 429	100	> 429	0	0	0	remaining at 4 h ([1]; pH 3, pH 3): 89.3%; inhibition at 80 µg/mL ([2]; L1210, 80 mcg/ml, read-out: Growth inhibition (%), (1-T/C) × 100): 90.9%; inhibition at 160 µg/mL ([2]; L1210, 160 mcg/ml, read-out: Growth inhibition (%), (1-T/C) × 100): 96%; responders at 0.2 mg/kg ([3]; 0.20 mg/kg/day i.p., read-out: Number of mice survived for 30 days (converted)): 0%; response vs control in vivo at 0.2 mg/kg ([3]; 0.20 mg/kg/day i.p., read-out: Prolongation of survival period (%), T/C × 100): 114%; responders at 0.39 mg/kg ([3]; 0.39 mg/kg/day i.p., read-out: Number of mice survived for 30 days (converted)): 0%; response vs control in vivo at 0.39 mg/kg ([3]; 0.39 mg/kg/day i.p., read-out: Prolongation of survival period (%), T/C × 100): 171%; responders at 0.78 mg/kg ([3]; 0.78 mg/kg/day i.p., read-out: Number of mice survived for 30 days (converted)): 50%; response vs control in vivo at 0.78 mg/kg ([3]; 0.78 mg/kg/day i.p., read-out: Prolongation of survival period (%), T/C × 100): > 300%; responders at 1.56 mg/kg ([3]; 1.56 mg/kg/day i.p., read-out: Number of mice survived for 30 days (converted)): 25%; response vs control in vivo at 1.56 mg/kg ([3]; 1.56 mg/kg/day i.p., read-out: Prolongation of survival period (%), T/C × 100): > 411%; responders at 3.13 mg/kg ([3]; 3.13 mg/kg/day i.p., read-out: Number of mice survived for 30 days (converted)): 100%; response vs control in vivo at 3.13 mg/kg ([3]; 3.13 mg/kg/day i.p., read-out: Prolongation of survival period (%), T/C × 100): > 429%; response vs control in vivo at 50 mg/kg [3, 8]: 0%; LD50 ([4]; mice, single i.p.): 12.5 to 25 mg/kg; MTD [5]: > 75 mg/kg
